# Test results as given in patent US8101580B2, “Therapeutic agent for irritable bowel syndrome” (Astellas Pharma Inc., priority 2005, dated 2012).
# Legend:
# [1] = tested on: fed male Sprague-Dawley rats; assay: Conditioned-fear stress (CFS)-induced defication model; assay type: in vivo; details: wet weight of feces for 30 minutes
# Procedure: Fed male Sprague-Dawley rats were used. The rats were put into an electric shock device having a grid set in the floor (17×17×39 cm, trade name: CB 2000 type, O'Hara), and conditioning was carried out after 3 seconds of a warning sound, by applying an electric current of 2.5 mA for 5 seconds per once per minute, a total of 15 times, and carrying out light irradiation by three 40 W electric bulbs at the time of the electric shock. The normal group was put into the measuring device by the same protocol, but the electric shock was not applied. After about 24 hours, the rats were again put into the electric shock device just after intraperitoneal administration of tested compound, and CFS loading was carried out by applying 3 seconds of warning sound and 5 seconds light irradiation for 30 minutes. Wet weights of excreted feces were measured for 30 minutes starting from the commencement of CFS loading. In this connection, the feces just after putting of the rats into the measuring device were excluded from measured values.
# fed male Wistar rats = assay: Abdominal pain model by large intestinal distension using abdominal muscle contraction reaction as the index; assay type: in vivo
# Procedure: Fed male Wistar rats were used. Under pentobarbital anesthesia, an electrode for electromyogram use (trade name: M-1.5I, Star Medical) was sewed on the outer abdominal oblique muscle. The electrode cord was fished out from the body of around the back of the head through the skin and protected with a protective jacket prepared by processing Velcro. The test was carried out when 5 days or more passed after the surgical operation.
# On the day of the test, a latex balloon of 5 to 6 cm in length was inserted from the rat anus under a light ether anesthesia and adjusted such that the balloon end is positioned at 2 cm from the anus. The catheter continuing from the balloon was fixed to the tail base with a tape and connected to a pressure transducer and a plastic bottle filled with water via a three-way cock. The plastic bottle was connected to a motor-aided device such that its height can be increased at a constant rate, and the colon-rectum was distended by increasing height of the plastic bottle. The balloon internal pressure signal was amplified using an amplifier for strain pressure use. After recovering from the ether anesthesia in a cage (23.5×19×19 cm), the colon-rectum distension was carried out. […] As a result, the abdominal muscle contracts and the electromyogram activities increase suddenly and sharply. The pressure at this point of time was regarded as the abdominal pain reflection threshold value. The electromyogram activities were amplified using an amplifier for bioelectric use (trade name: AB-621G, Nihon Kohden Corp.), and recorded by a data recording interface (trade name: 1401 plus, Cambridge Electronic Design, Cambridge, England). The colon-rectum distension was repeatedly carried out at intervals of 4 minutes until completion of the test. The compound was administered 2 minutes after completion of the measurement of the pre-administration value, and the colon-rectum distension was repeated until 60 minutes after the administration. […]
# BB2 receptor = target: T1, BB2 receptor (Homo sapiens, UniProt P30550); assay: BB2 receptor binding test (125I [Tyr4] bombesin, PC-3 cell membrane sample); details: membrane sample of human prostate cancer-derived PC-3 cell; 125I [Tyr4] bombesin 0.075 nM; room temperature, 2 hours; read-out: 50% binding inhibition concentration
# T1 construct: endogenous in cells; host or cells: PC-3 human prostate cancer cells (membrane preparation)
# Procedure: A BB2 receptor binding test was carried out using a membrane sample prepared from a human prostate cancer-derived PC-3 cell. The PC-3 cell was cultured using RPMI-1640 medium containing 5% fetal bovine serum, and then a membrane sample was prepared by the following methods. The cells loosened by a trypsin treatment were mixed with 50 mM Tris-HCl buffer (pH 7.4, containing 0.2 mg/ml trypsin inhibitor and 0.2 mg/ml benzamidine) and homogenized by Polytron. The cell suspension was centrifuged at 1,500 rpm for 10 minutes, and the thus obtained supernatant was subjected to 1 hour of ultracentrifugation at 37,000 rpm. The precipitate was suspended in the aforementioned buffer to a concentration of 0.4 mg protein/ml and stored at −80° C.
# The BB2 receptor binding test was carried out by the following method, and the receptor antagonistic activity of a compound to be tested was calculated. A 50 μl portion of the membrane sample, 50 μl of an assay buffer (20 mM HEPES-HBSS containing 0.1% bovine serum albumin and 0.1 mg/ml bacitracin, pH 7.4) ^125I [Tyr^4] bombesin (0.075 nM) and 2 μl of each compound to be tested dissolved in dimethyl sulfoxide were added to a 96 well assay plate and incubated at room temperature for 2 hours. Non-specific binding was measured using 1 μM of bombesin. After completion of the incubation, the reaction liquid was filtered through a Whatman GF/B filter which had been soaked in 0.5% polyethyleneimine. The radioactivity on the filter was measured using a microplate scintillation counter (Top Count, Perkin-Elmer).
# fed male ddY mice = assay: Restraint stress-induced defication model; assay type: in vivo; details: for 50% inhibition dose for restraint stress-induced defication: number of feces excreted during 1 hour of restraint
# Text: RC-3095 was used by dissolving in physiological saline, and compound 1, compound 3 and compound 5 in physiological saline containing 5% ethanol+5% Cremophor, and compound 2 and compound 4 in water for injection containing 20% propylene glycol+20% Tween 80. Just after intraperitoneal administration of a compound to be tested to each of fed male ddY mice, the animal was put into a restraint stress cage (KN-469, Natsume Seisakusho). The number of feces excreted during a period of from the restriction commencement to 1 hour thereafter was measured. Normal group was put into a separate cage, and number of feces excreted during 1 hour was measured in the same manner.
# patients = details: IBS patients; cited from earlier work
# T1 sequence (P30550 whole entry): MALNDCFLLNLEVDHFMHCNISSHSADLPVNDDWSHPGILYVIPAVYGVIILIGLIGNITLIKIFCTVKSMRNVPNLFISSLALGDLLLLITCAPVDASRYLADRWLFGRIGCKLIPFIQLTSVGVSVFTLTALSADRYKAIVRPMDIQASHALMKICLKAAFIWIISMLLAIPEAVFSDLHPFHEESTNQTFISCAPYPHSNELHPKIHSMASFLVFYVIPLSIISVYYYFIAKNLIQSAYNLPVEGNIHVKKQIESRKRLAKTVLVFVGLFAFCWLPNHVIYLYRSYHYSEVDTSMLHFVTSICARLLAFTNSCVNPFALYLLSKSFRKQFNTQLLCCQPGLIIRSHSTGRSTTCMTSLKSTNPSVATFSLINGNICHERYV
Structure (SMILES),IC50 (BB2 receptor),50% inhibition dose for restraint stress-induced defication (fed male ddY mice; intraperitoneal),other results
CC(C)CC(CN[C@@H](CC(C)C)C(N)=O)NC(=O)[C@H](Cc1cnc[nH]1)NC(=O)CNC(=O)[C@@H](NC(=O)C(C)NC(=O)[C@H](Cc1c[nH]c2ccccc12)NC(=O)[C@H](CCC(N)=O)NC(=O)[C@H]1Cc2c([nH]c3ccccc23)CN1)C(C)C (some centres unmarked) [RC-3095],20 nM,5.2 mg/kg,"effect on CFS-induced defication at 10 mg/kg (in words) ([1]; 10 mg/kg intraperitoneal): significant inhibitory action; effect on CFS-induced defication (in words) ([1]; intraperitoneal, FIG. 8): dose-dependent inhibitory effect on the defication; action on abdominal pain threshold value at 3 mg/kg (in words) (fed male Wistar rats; 3 mg/kg, AUC of threshold values until 60 minutes): significant increasing action; action on abdominal pain threshold value at 10 mg/kg (in words) (fed male Wistar rats; 10 mg/kg, AUC of threshold values until 60 minutes): significant increasing action; action on abdominal pain threshold value (in words) (fed male Wistar rats; AUC of threshold values until 60 minutes after administration, FIG. 9): dose-dependently increase abdominal pain threshold value; effect on restraint stress-induced defication (in words) (fed male ddY mice; intraperitoneal, FIG. 2): dose-dependent inhibitory effect on the defication"
Cc1[nH]cnc1CN1CCc2c(c3ccccc3n2C)C1=O [alosetron],–,–,improving rate for abdominal symptoms and diarrhea (patients): 40 to 60%; serious side effect (patients): ischemic colitis (including mortal cases)
"c1ccc(-c2sc(-c3ccccn3)nc2-c2cccc3ccccc23)cc1 [compound 1, 2-[4-(1-naphthyl)-5-phenyl-1,3-thiazol-2-yl]pyridine]",504 nM,–,"inhibitory effect on the defication (fed male ddY mice; 10 mg/kg intraperitoneal, number of feces during 1 hour of restraint): about 83%"
"O=C(/C=C/c1ccc(-c2ccc([N+](=O)[O-])cc2)o1)c1ccccc1 [compound 2, (2E)-3-[5-(4-nitrophenyl)-2-furyl]-1-phenyl-2-propen-1-one]",1330 nM,34.3 mg/kg,–
"O=C(Nc1ccc(S(=O)(=O)N2CCCCC2c2cccnc2)cc1)c1cc([N+](=O)[O-])ccc1Cl (centres unmarked) [compound 3, 2-chloro-5-nitro-N-(4-{[2-(pyridin-3-yl)piperidin-1-yl]sulfonyl}phenyl)benzamide]",342 nM,19.0 mg/kg,–
COc1ccc(N(CC(=O)Nc2ccc(Cl)cc2C)S(=O)(=O)c2ccccc2)cc1OC [compound 4],398 nM,13.5 mg/kg,–
"COc1cc(OC)cc(C(=O)Nc2sc3c(c2-c2nc4ccccc4s2)CCN(C(C)C)C3)c1.Cl [compound 5, N-[3-(1,3-benzothiazol-2-yl)-6-isopropyl-4,5,6,7-tetrahydrothieno[2,3-c]pyridin-2-yl]-3,5-dimethoxybenzamide hydrochloride]",383 nM,15.6 mg/kg,–
